Consider 17 molecules from article PMC6044835, “Expression, Purification, and Biochemical Characterization of the Flavocytochrome P450 CYP505A30 from Myceliophthora thermophila” (ACS Omega, 2017).

Several values for one entry are separate records, joined by “and”; a condition that tells them apart may be missing. Equal entries are not always repeated. Where two headings read alike, the source gives them in different places.

Series [1] concerns the target T1, CYP505A30 (Thermothelomyces thermophilus, UniProt G2QDZ3). As to conditions: for kcat: reduction of the electron acceptor, 25 °C.
Series [2] concerns the target T1, CYP505A30. The series is described as follows: UV–visible spectral binding titration with intact CYP505A30. Particulars: for HS (%): extent of HS heme iron accumulated, intact CYP505A30, estimated to nearest 5%.
In series [3] the target is T2, CYP505A30 heme domain (Thermothelomyces thermophilus, UniProt G2QDZ3). Put plainly: UV–visible spectral binding titration with CYP505A30 heme domain. As to conditions: for HS (%): extent of HS heme iron accumulated, heme domain, estimated to nearest 5%.
Series [4] concerns the target T1, CYP505A30. As to conditions: CYP505A30, GC–MS.
Series [5] concerns P450 BM3. Set-up: method as in PMID 1727637. Particulars: cited from earlier work.
Series [6] addresses T1, CYP505A30. The series is described as follows: Steady-state fatty acid-dependent NADPH oxidation.
In series [7] the test system is P450 BM3. Particulars: P450 BM3, similar conditions; cited from earlier work.
The target of series [8] is T1, CYP505A30.
For series [9], the target named is T2, CYP505A30 heme domain.
The target in series [10] is T1, CYP505A30. The series is described as follows: Stopped-flow kinetics of flavin reduction by NAD(P)H. The series is classed as biochemical, Myceliophthora thermophila.
In series [11] the target is T1, CYP505A30. Put plainly: UV-visible spectral binding titration of imidazole-type inhibitors (Soret red shift by distal heme iron coordination) to intact CYP505A30 in 50 mM potassium phosphate pH 7.0 (25 °C stated for the substrate titrations), hyperbolic fit for bifonazole. On the set-up: gene MYCTH_101224; intact CYP505A30, amino acids 1-1080, N-terminal hexahistidine tag (pET15b), expressed in E. coli. As to conditions: read-out: KD values (azole/imidazole inhibitors). The text has this:
Figure 5 UV–visible spectroscopic analysis of CYP505A30 and its heme domain. […] The sodium dithionite-reduced ferrous form (dotted line) has its Soret maximum at 411 nm and a single visible region absorbance band at 546 nm. The ferrous, CO-bound form (thin solid line) has its Soret maximum at 450 nm and a visible band at 550 nm. The ferric heme NO-bound form (dashed line) has a Soret maximum at 434 nm and visible region bands at 543 and 573 nm. […] For clarity, the visible region is also shown at 5× magnification. […] The substrate-free heme domain (4.9 μM) is shown with a thick solid line. […] Each ΔAbs point is derived from the value of the difference peak absorbance maximum (at 388 nm) minus the difference trough absorbance minimum (at 417 nm). […]
The wavelengths of the absorbance minimum and maximum were identified from the difference spectra, and a maximal induced absorbance change (ΔAmax) at each point in the titration was determined by subtracting the absorbance at the wavelength minimum from that at the absorbance maximum, using the same wavelength pair throughout each titration. ΔAmax values were then plotted against ligand concentration, and data were fitted using either a hyperbolic (Michaelis–Menten) function or the Morrison function for tight-binding ligands, to determine dissociation constants (KD values), as described previously.[38],[52]

Series [12] concerns the target Myceliophthora thermophila flavocytochrome P450 CYP505A30 (P450-CPR fusion enzyme), intact (Myceliophthora thermophila). Put plainly: SEC-MALS; 5 mg protein samples in buffer A (50 mM potassium phosphate, pH 7.0) containing 200 mM KCl; integrated Superdex 200 gel filtration followed at once by a DAWN EOS MALLS detector; monomer and dimer of the intact enzyme. For orientation: In gel filtration, larger molecules generally elute earlier.

Substrate in series [13]: CCCCC/C=C\C/C=C\C/C=C\C/C=C\CCCC(=O)O
Put plainly: purified protein, by the assay type. As to conditions: other: fatty acid-induced NADPH oxidation, 25 °C.

Substrate in series [14]: CCCCCCCCCCCCCC(=O)O
Put plainly: purified protein, by the assay type. Particulars: other: fatty acid-induced NADPH oxidation, 25 °C.

Substrate in series [15]: CCCCCCCCCCCC(=O)O
Put plainly: purified protein, by the assay type. Particulars: other: fatty acid-induced NADPH oxidation, 25 °C.

Substrate in series [16]: CCCCCCCCCCCCCCC(=O)O
Put plainly: purified protein, by the assay type. As to conditions: other: fatty acid-induced NADPH oxidation, 25 °C.

Setting [17] is: fatty acid-induced NADPH oxidation, 25 °C, 200 μM NADPH.
Where [18] appears, read: KD, substrate binding to intact CYP505A30, heme absorbance change, 25 °C.
Setting [19] is: fatty acid-dependent NADPH oxidation.

For “cytochrome c: Cytochrome c (horse heart; Sigma-Aldrich), electron acceptor substrate for CPR enzymes”, the “fold slower kcat than the BM3 enzyme” value with CYP505A30 [1] (BM3 under similar conditions) is “approximately 7.5 fold”. The Km with CYP505A30 [1] (read-out: KM (electron acceptor), NADPH as electron donor) came out at 79.3 ± 10.3 µM. Further, the kcat in the series with CYP505A30 [1] (NADH as electron donor) worked out at 29.5 ± 2.4 s^–1; with CYP505A30 [1] (NADPH as electron donor), 29.7 ± 0.7 s^–1.
At CYP505A30 [2] (KD, imidazole-based inhibitors, distal coordination of heme iron, intact CYP505A30), `c1ccc(-n2ccnc2)cc1` [1-phenylimidazole] came in with a Kd of 3.4 ± 0.2 µM.
As for `CCCCCCCCCCCCCCCC(=O)NCC(=O)O` [N-palmitoylglycine], the figures for the “HS (%)” value on CYP505A30 heme domain [3] and at CYP505A30 [2] were 75% and 95%, respectively.
`CCCCCCCCCCCCCCCCCC(=O)O` [octadecanoic acid]: at CYP505A30 heme domain [3], the Kd is 5 ± 0.7 µM and the “HS (%)” value was 10%. On CYP505A30 [2], the Kd came to 11.9 ± 1 µM and the “HS (%)” value is 15%.
For `CCCCCCCCCCCCCCCCC(=O)O` [heptadecanoic acid], in that order: 8.7 ± 0.8 µM, 20%, 4.1 ± 0.7 µM and 10%.
On to `Clc1ccc(COC(Cn2ccnc2)c2ccc(Cl)cc2Cl)cc1` (stereo not shown) [econazole], for which, at CYP505A30 [2] (KD), the Kd turned out to be 10 ± 0.9 µM.
`CCCCCCCCCCCCCC(=O)O` [tetradecanoic acid]: the “ω-1 hydroxylated product proportion” value at CYP505A30 [4] was 63%; on CYP505A30 [4] (listed as myristic acid), “approximately 63%”; in the series with P450 BM3 [5] it was 58%. Further, the results for the “ω-2 hydroxylated product proportion” value at CYP505A30 [4] and with P450 BM3 [5] were approximately 28% and 21%, respectively. Besides, the “ω-3 hydroxylated product proportion” value was 9% at CYP505A30 [4] and 21% with P450 BM3 [5]. Moreover, the Kd at CYP505A30 heme domain [3] turned out to be 3.9 ± 0.3 µM; on CYP505A30 [2] (setting [18]), 7.4 ± 0.2 µM. Moreover, the “HS (%)” value is given as 85% at CYP505A30 heme domain [3] and 80% at CYP505A30 [2]. Moreover, the results for the kcat on CYP505A30 [6] (setting [17]) and with P450 BM3 [7] were 1.21 ± 0.1 s^–1 and 30.8 ± 1.5 s^–1, respectively.
`CCCCCCCCCCCCC(=O)O` [tridecanoic acid]: the values for the Kd on CYP505A30 heme domain [3] and at CYP505A30 [2] (setting [18]) were 4.8 ± 0.3 µM and 2.7 ± 0.3 µM, respectively. The results for the “HS (%)” value at CYP505A30 [8] and at CYP505A30 heme domain [9] were 65% and 30%, respectively. Further, the kcat on CYP505A30 [6] (setting [17]) stood at 5.0 ± 0.3 s^–1.
On to `CCCCCCCCCC(=O)O` [decanoic acid], for which the “HS (%)” value on CYP505A30 [8] was determined as 30%. The same molecule yielded a Kd on CYP505A30 [2] (KD) of 21.1 ± 2 µM.
Turning to `CCCCCCCCCCCCCCC(=O)O` [pentadecanoic acid], on CYP505A30 heme domain [3], the Kd was 1.1 ± 0.3 µM and the “HS (%)” value is reported as 90%. For the same molecule, on CYP505A30 [6] (setting [19]), the “KD (Michaelis–Menten fit of steady-state NADPH oxidation)” value came to 7.8 µM and the kcat is given as approximately 450 min^–1. Moreover, at CYP505A30 [2], the Kd worked out at 4.4 ± 0.6 µM and the “HS (%)” value is recorded as 85%.
In the case of `CCCCCCCCCCCCCCCC(=O)O` [hexadecanoic acid], the Kd at CYP505A30 heme domain [3] amounted to 1 ± 0.4 µM; at CYP505A30 [2] (setting [18]) it was 10.5 ± 0.2 µM. Moreover, the “HS (%)” value at CYP505A30 heme domain [3] is given as 55%; at CYP505A30 [2], 80%.
`NC(=O)C1=CN([C@@H]2O[C@H](COP(=O)(O)OP(=O)(O)OC[C@H]3O[C@@H](n4cnc5c(N)ncnc54)[C@H](O)[C@@H]3O)[C@@H](O)[C@H]2O)C=CC1` [NADH, reduced nicotinamide adenine dinucleotide] returned a klim flavin reduction on CYP505A30 [10] (10 °C) of 42.0 ± 3.2 s^–1.
Take `c1ccc(-c2ccc(C(c3ccccc3)n3ccnc3)cc2)cc1` (stereo not shown) [bifonazole]: the Kd at CYP505A30 [2] (KD) was 69 µM and 69.1 µM.
Consider `c1c[nH]cn1` [imidazole], for which the Kd on CYP505A30 [11] is 723 µM.
Molecule “Myceliophthora thermophila flavocytochrome P450 CYP505A30 (P450-CPR fusion enzyme), intact” yielded a stoichiometry N in series [12] of 2.
Turning to `NC(=O)C1=CN([C@@H]2O[C@H](COP(=O)(O)OP(=O)(O)OC[C@H]3O[C@@H](n4cnc5c(N)ncnc54)[C@H](OP(=O)(O)O)[C@@H]3O)[C@@H](O)[C@H]2O)C=CC1` [NADPH, reduced nicotinamide adenine dinucleotide phosphate], the “gradient of kobs vs temperature” value at CYP505A30 [10] (10 to 35 °C, 1 mM NADPH) was 14.5 ± 1.5 s^–1 °C^–1. Further, the klim flavin reduction at CYP505A30 [10] (10 °C) is listed as approximately 82 s^–1; on CYP505A30 [10] (25 °C), approximately 250 s^–1. Further, on CYP505A30 [10] (10 °C, across [NADPH] range up to 1.2 mM), the kobs flavin reduction was determined as 82.4 ± 9.1 s^–1. Further, the “kobs flavin reduction (highest rate constant)” value on CYP505A30 [10] (35 °C, 1 mM NADPH) was found to be 441 ± 11 s^–1.

B1: CYP505A30 (Thermothelomyces thermophilus ATCC 42464) (protein)
chain: MADKTTETVPIPGPPGLPLVGNALAFDSELPLRTFQEFAEEYGEIYRLTLPTGTTLVVSSQALVHELCDDKRFKKPVAAALAEVRNGVNDGLFTAREEEPNWGIAHRILMPAFGPASIQGMFTEMHEIASQLALKWARHGPDTPIFVTDDFTRLTLDTLALCTMNFRFNSYYHDELHPFINAMGNFLTESGARAMRPAITSIFHQAANRKYWEDIEVLRKTAQGVLDTRRKHPTNRKDLLSAMLDGVDAKTGQKLSDSSIIDNLITFLIAGHETTSGLLSFAFYLLIKHQDAYRKAQEEVDRVIGKGPIKVEHIKKLPYIAAVLRETLRLCPTIPIINRAAKQDEVIGGKYAVAKDQRLALLLAQSHLDPAVYGETAKQFIPERMLDENFERLNREYPDCWKPFGTGMRACIGRPFAWQEAVLVMAMLLQNFDFVLHDPYYELHYKQTLTTKPKDFYMRAILRDGLTATELEHRLAGNAASVARSGGGGGGPSKPTAQKTSPAEAKPMSIFYGSNTGTCESLAQRLATDAASHGYAAAAVEPLDTATEKLPTDRPVVIITASFEGQPPDNAAKFCGWLKNLEGDELKNVSYAVFGCGHHDWSQTFHRIPKLVHQTMKAHGASPICDEGLTDVAEGNMFTDFEQWEDDVFWPAVRARYGAAGAVAETEDAPGSDGLNIHFSSPRSSTLRQDVREATVVGEALLTAPDAPPKKHIEVQLPDGATYKVGDYLAVLPVNSKESIGRVMRKFQLSWDSHVTIASDRWTALPTGTPVPAYDVLGSYVELSQPATKRGILRLADAAEDEATKAELQKLAGDLYTSEISLKRASVLDLLDRFPSISLPFGTFLSLLPPIRPRQYSISSSPLNDPSRATLTYSLLDSPSLANPSRRFVGVATSYLSSLVRGDKLLVSVRPTHTAFRLPDEDKMGETAIICVGAGSGLAPFRGFIQERAALLAKGTQLAAALLFYGCRSPEKDDLYRDEFDKWQESGAVDVRRAFSRVDSDDTEARGCRHVQDRLWHDREEVKALWDRGARVYVCGSRQVGEGVKTAMGRIVLGEEDAEDAISKWYETVRNDRYATDVFD
Regarding B1, the Km in [13] came to 9.2 ± 0.5 µM; in [14], 7.7 ± 1.9 µM; in [15], 21.2 ± 2.4 µM; in series [16] it was 7.8 ± 2.1 µM. Further, the kcat in [13] worked out at 2 ± 0.1 s⁻¹; in [14], 1.2 ± 0.1 s⁻¹; in series [15], 4.8 ± 0.2 s⁻¹; in series [16], 7.5 ± 0.7 s⁻¹. The kcat/Km in series [13] amounted to 220000 M⁻¹ s⁻¹; in series [14] it was 160000 M⁻¹ s⁻¹; in [15], 230000 M⁻¹ s⁻¹; in series [16], 960000 M⁻¹ s⁻¹.

In general, Km refers to the substrate concentration at which the rate is half of its maximum. By stoichiometry N is commonly meant the number of molecules, sites or subunits per partner or assembly. One may read the kcat/Km as the second-order rate constant that governs catalysis at low substrate concentration.
